Measured values: US5401490A, “Markers of tissue hypoxia” (priority 1989, dated 1995)
Read-outs that look alike come from different tables or passages of the source.

Legend:
[1] = Blood clearance and whole body elimination of radioactivity; type: in vivo, BALB/C mice
Text: Each data point represents the mean of 6 animals.
Tables 1 and 2 show the percent of injected IAZG and IAZA respectively per gram of wet tissue for selected tissues excised from BALB/C mice bearing EMT-6 tumors. This tumor model is known to have a high hypoxic fraction (0.33) (16). […] Hepatobiliary excretion may play a role in blood clearance as evidenced by elevated liver radioactivity and the appearance of activity in the intestine. Some oxidative or reductive metabolites of the 2-nitroimidazoles may also become bound to liver tissue, as was postulated in an in vivo study with ^14 C-MISO (6). This supposition is supported by the persistence of liver radioactivity at longer time periods. […] At 8 and 24 hours thyroid levels of IAZG are 7.2 and 30.9% of the total body activity and for IAZA they are 7.9 and 33.8% of total body activity.
EXAMPLE 11 TISSUE DISTRIBUTION AND EXCRETION
Tumor propagation of EMT-6 tumors in BALB/C mice was accomplished by subcutaneous injection of a cell suspension (10^5 cells in 0.1 mL) as described previously (10). Tumors reached about 10 mm in diameter (≈0.5 g) at 12 to 14 days, at which time each animal was given a bolus intravenous injection of ^125 I-labelled test drug via the tail vein (40 to 60 kBq in 0.1 mL). At set time periods the animals were asphyxiated with CO2 and exsanguinated via cardiac puncture. Tissues were dissected, weighed wet into vials and counted for ^125 I-activity. Whole-body activity was determined by summation of total activity in tissues and in residual carcass, and blood activity was determined from the blood aliquot, assuming blood to be 6.5% of the total body weight.

[2] = Tissue distribution of radioactivity after intravenous injection; type: in vivo, BALB/C mice; details: mouse, iv, i.v.; for tissue uptake at 0.5 h: 0.50 h
In short: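 BALB/c mice carried subcutaneous EMT-6 tumours (10^5 cells), reaching about 8–10 mm at 12–14 days. Each received a bolus tail-vein injection of ^125I-labelled drug (40–60 kBq). At set times, tissues were weighed wet and gamma-counted, giving % injected dose per gram; blood was assumed to be 6.5% of body weight.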

[3] = blood, read-out: Percent of Injected Dose per Gram, Blood
[4] = bone, read-out: Percent of Injected Dose per Gram, Bone
[5] = carcass, read-out: Percent of Injected Dose per Gram, Carcass
[6] = heart, read-out: Percent of Injected Dose per Gram, Heart
[7] = intestine, read-out: Percent of Injected Dose per Gram, Intestine
[8] = kidney, read-out: Percent of Injected Dose per Gram, Kidney
[9] = liver, read-out: Percent of Injected Dose per Gram, Liver
[10] = lung, read-out: Percent of Injected Dose per Gram, Lung
[11] = muscle, read-out: Percent of Injected Dose per Gram, Muscle
[12] = spleen, read-out: Percent of Injected Dose per Gram, Spleen
[13] = stomach, read-out: Percent of Injected Dose per Gram, Stomach
[14] = tumor, read-out: Percent of Injected Dose per Gram, Tumor

Question: What does the source list for `O=[N+]([O-])c1nccn1[C@@H]1O[C@H](CI)[C@@H](O)[C@@H]1O` [IAZA, 1-(5-iodo-5-deoxy-β-D-arabino-furanosyl)-2-nitroimidazole]?
Answer: major route of excretion ([1]; high kidney radioactivity at short time periods): via the urine; blood clearance ([1]; i.v. bolus, ^125 I-labelled): initial rapid blood clearance; excretion of radioactivity from the body ([1]; i.v. bolus, ^125 I-labelled): rapid excretion of radioactivity from the body; tissue uptake at 0.25 h [2, 3]: 2.63 ± 0.28 %ID/g; tissue uptake at 0.5 h [2, 3]: 2.17 ± 0.85 %ID/g; tissue uptake at 1 h [2, 3]: 1.84 ± 0.72 %ID/g; tissue uptake at 2 h [2, 3]: 0.91 ± 1.56 %ID/g; tissue uptake at 4 h [2, 3]: 0.45 ± 1.24 %ID/g; tissue uptake at 8 h [2, 3]: 0.14 ± 0.07 %ID/g; tissue uptake at 24 h [2, 3]: 0.037 ± 0.047 %ID/g; tissue uptake at 0.25 h [2, 4]: 1.31 ± 0.18 %ID/g; tissue uptake at 0.5 h [2, 4]: 1.37 ± 0.57 %ID/g; tissue uptake at 1 h [2, 4]: 1.15 ± 0.52 %ID/g; tissue uptake at 2 h [2, 4]: 0.58 ± 0.26 %ID/g; tissue uptake at 4 h [2, 4]: 0.27 ± 0.09 %ID/g; tissue uptake at 8 h [2, 4]: 0.08 ± 0.03 %ID/g; tissue uptake at 24 h [2, 4]: 0.022 ± 0.03 %ID/g; tissue uptake at 0.25 h [2, 5]: 2.68 ± 0.44 %ID/g; tissue uptake at 0.5 h [2, 5]: 2.55 ± 0.37 %ID/g; tissue uptake at 1 h [2, 5]: 2.23 ± 0.91 %ID/g; tissue uptake at 2 h [2, 5]: 1.46 ± 0.29 %ID/g; tissue uptake at 4 h [2, 5]: 0.89 ± 0.52 %ID/g; tissue uptake at 8 h [2, 5]: 0.28 ± 0.12 %ID/g; tissue uptake at 24 h [2, 5]: 0.038 ± 0.016 %ID/g; tissue uptake at 0.25 h [2, 6]: 4.69 ± 0.91 %ID/g; tissue uptake at 0.5 h [2, 6]: 3.56 ± 0.66 %ID/g; tissue uptake at 1 h [2, 6]: 2.78 ± 1.3 %ID/g; tissue uptake at 2 h [2, 6]: 1.03 ± 0.43 %ID/g; tissue uptake at 4 h [2, 6]: 0.32 ± 0.24 %ID/g; tissue uptake at 8 h [2, 6]: 0.22 ± 0.05 %ID/g; tissue uptake at 24 h [2, 6]: 0.042 ± 0.017 %ID/g; tissue uptake at 0.25 h [2, 7]: 5.42 ± 1.03 %ID/g; tissue uptake at 0.5 h [2, 7]: 4.44 ± 0.62 %ID/g; tissue uptake at 1 h [2, 7]: 4.63 ± 1.92 %ID/g; tissue uptake at 2 h [2, 7]: 1.73 ± 0.55 %ID/g; tissue uptake at 4 h [2, 7]: 0.81 ± 0.46 %ID/g; tissue uptake at 8 h [2, 7]: 0.77 ± 0.36 %ID/g; tissue uptake at 24 h [2, 7]: 0.041 ± 0.016 %ID/g; tissue uptake at 0.25 h [2, 8]: 6.56 ± 0.63 %ID/g; tissue uptake at 0.5 h [2, 8]: 5.67 ± 0.95 %ID/g; tissue uptake at 1 h [2, 8]: 4.38 ± 1.25 %ID/g; tissue uptake at 2 h [2, 8]: 1.8 ± 0.61 %ID/g; tissue uptake at 4 h [2, 8]: 0.66 ± 0.39 %ID/g; tissue uptake at 8 h [2, 8]: 0.34 ± 0.06 %ID/g; tissue uptake at 24 h [2, 8]: 0.52 ± 0.004 %ID/g; tissue uptake at 0.25 h [2, 9]: 8.65 ± 1.02 %ID/g; tissue uptake at 0.5 h [2, 9]: 7.14 ± 1.13 %ID/g; tissue uptake at 1 h [2, 9]: 5.63 ± 2.27 %ID/g; tissue uptake at 2 h [2, 9]: 2.18 ± 0.8 %ID/g; tissue uptake at 4 h [2, 9]: 0.95 ± 0.58 %ID/g; tissue uptake at 8 h [2, 9]: 0.47 ± 0.1 %ID/g; tissue uptake at 24 h [2, 9]: 0.098 ± 0.008 %ID/g; tissue uptake at 0.25 h [2, 10]: 4.61 ± 0.82 %ID/g; tissue uptake at 0.5 h [2, 10]: 3.77 ± 0.67 %ID/g; tissue uptake at 1 h [2, 10]: 2.99 ± 1.41 %ID/g; tissue uptake at 2 h [2, 10]: 1.15 ± 0.38 %ID/g; tissue uptake at 4 h [2, 10]: 0.45 ± 0.3 %ID/g; tissue uptake at 8 h [2, 10]: 0.33 ± 0.07 %ID/g; tissue uptake at 24 h [2, 10]: 0.037 ± 0.008 %ID/g; tissue uptake at 0.25 h [2, 11]: 3.09 ± 0.67 %ID/g; tissue uptake at 0.5 h [2, 11]: 2.77 ± 0.54 %ID/g; tissue uptake at 1 h [2, 11]: 2.19 ± 1.03 %ID/g; tissue uptake at 2 h [2, 11]: 0.69 ± 0.29 %ID/g; tissue uptake at 4 h [2, 11]: 0.24 ± 0.12 %ID/g; tissue uptake at 8 h [2, 11]: 0.36 ± 0.31 %ID/g; tissue uptake at 24 h [2, 11]: 0.02 ± 0.004 %ID/g; tissue uptake at 0.25 h [2, 12]: 3.57 ± 0.67 %ID/g; tissue uptake at 0.5 h [2, 12]: 3 ± 0.62 %ID/g; tissue uptake at 1 h [2, 12]: 2.48 ± 1.25 %ID/g; tissue uptake at 2 h [2, 12]: 0.93 ± 0.37 %ID/g; tissue uptake at 4 h [2, 12]: 0.35 ± 0.2 %ID/g; tissue uptake at 8 h [2, 12]: 0.18 ± 0.04 %ID/g; tissue uptake at 24 h [2, 12]: 0.036 ± 0.034 %ID/g; tissue uptake at 0.25 h [2, 13]: 4.36 ± 0.7 %ID/g; tissue uptake at 0.5 h [2, 13]: 4.75 ± 1.05 %ID/g; tissue uptake at 1 h [2, 13]: 3.95 ± 0.93 %ID/g; tissue uptake at 2 h [2, 13]: 3.3 ± 0.93 %ID/g; tissue uptake at 4 h [2, 13]: 1.81 ± 1.6 %ID/g; tissue uptake at 8 h [2, 13]: 0.87 ± 0.54 %ID/g; tissue uptake at 24 h [2, 13]: 0.067 ± 0.014 %ID/g; tissue uptake at 0.25 h [2, 14]: 2.55 ± 0.86 %ID/g; tissue uptake at 0.5 h [2, 14]: 3.48 ± 0.46 %ID/g; tissue uptake at 1 h [2, 14]: 2.7 ± 0.39 %ID/g; tissue uptake at 2 h [2, 14]: 2.55 ± 1.65 %ID/g; tissue uptake at 4 h [2, 14]: 2.08 ± 0.27 %ID/g; tissue uptake at 8 h [2, 14]: 1.22 ± 0.24 %ID/g; tissue uptake at 24 h [2, 14]: 0.206 ± 0.23 %ID/g
